# Experimental data as given in ChEMBL document CHEMBL1201862, “PubChem BioAssay data set” (2004).
#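 Step 1: Grow cells in 96-well plates. Step 2: Expose to compound for 48 hours at 5 concentrations. Step 3: Interpolate endpoints linearly; if unreached, use highest concentration. Abbreviation: GI50, concentration required for 50% inhibition of growth.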 Active and inactive are the calls of the source. No stated cut-off is given here; in the data, active = GI50 up to about 1.1 µM and inactive = higher.
# Columns and labels:
# Experiment in all cases: growth of human tumour cells (NCI), 48 h
# U-251 = test system: U-251
# SK-MEL-28 = test system: SK-MEL-28
# TK-10 = test system: TK-10
# OVCAR-3 = test system: OVCAR-3
# SF-268 = test system: SF-268
# MDA-MB-231 = test system: MDA-MB-231
# PC-3 = test system: PC-3
# CAKI-1 = test system: CAKI-1
# CCRF-CEM = test system: CCRF-CEM
# UO-31 = test system: UO-31
# SK-MEL-2 = test system: SK-MEL-2
# DU-145 = test system: DU-145
# SK-MEL-5 = test system: SK-MEL-5
# SW-620 = test system: SW-620
# KM12 = test system: KM12
# RPMI-8226 = test system: RPMI-8226
# MOLT-4 = test system: MOLT-4
# HL-60 = test system: HL-60
# NCI-H460 = test system: NCI-H460
# NCI-H226 = test system: NCI-H226
Compound,GI50 (U-251),GI50 (SK-MEL-28),GI50 (TK-10),GI50 (OVCAR-3),GI50 (SF-268),GI50 (MDA-MB-231),GI50 (PC-3),GI50 (CAKI-1),GI50 (CCRF-CEM),GI50 (UO-31),GI50 (SK-MEL-2),GI50 (DU-145),GI50 (SK-MEL-5),GI50 (SW-620),GI50 (KM12),GI50 (RPMI-8226),GI50 (MOLT-4),GI50 (HL-60),GI50 (NCI-H460),GI50 (NCI-H226)
COc1cc2c(/C=C3/C(=O)Nc4ccc(Cl)cc43)c(Cl)n(Cc3ccccc3)c2cc1C,2.3 µM (inactive),2.39 µM (inactive),1.8 µM (inactive),1.98 µM (inactive),6.19 µM (inactive),2.48 µM (inactive),5.89 µM (inactive),2.97 µM (inactive),2.89 µM (inactive),2.51 µM (inactive),6.21 µM (inactive),3.9 µM (inactive),3.32 µM (inactive),6.73 µM (inactive),2.33 µM (inactive),2.51 µM (inactive),2.26 µM (inactive),3.93 µM (inactive),3.3 µM (inactive),2.81 µM (inactive)
COc1cccc2c1C(=O)c1ccc3cc(CO)cc(O)c3c1C2=O,1.45 µM (inactive),1.86 µM (inactive),3.01 µM (inactive),0.169 µM (active),0.815 µM (active),0.594 µM (active),0.215 µM (active),2.72 µM (inactive),0.204 µM (active),0.982 µM (active),0.798 µM (active),0.733 µM (active),0.139 µM (active),0.19 µM (active),0.893 µM (active),0.74 µM (active),0.405 µM (active),0.171 µM (active),0.304 µM (active),0.908 µM (active)
Cc1cc(Cl)ccc1OCC(=O)Nc1nc(N)nc(N)n1,> 100 µM (inactive),> 100 µM (inactive),> 100 µM (inactive),> 100 µM (inactive),> 100 µM (inactive),> 100 µM (inactive),> 100 µM (inactive),> 100 µM (inactive),> 100 µM (inactive),40.7 µM (inactive),> 100 µM (inactive),> 100 µM (inactive),> 100 µM (inactive),> 100 µM (inactive),> 100 µM (inactive),> 100 µM (inactive),> 100 µM (inactive),> 100 µM (inactive),> 100 µM (inactive),> 100 µM (inactive)
CCOC(=O)C(C(=O)OCC)C1C=CCC2c3ccccc3COCC21 (stereo not given),57.9 µM (inactive),55.7 µM (inactive),98.2 µM (inactive),65.5 µM (inactive),67.5 µM (inactive),> 100 µM (inactive),42.6 µM (inactive),26.5 µM (inactive),36.1 µM (inactive),43.9 µM (inactive),41.4 µM (inactive),> 100 µM (inactive),19.1 µM (inactive),52.7 µM (inactive),33.6 µM (inactive),41.5 µM (inactive),40.9 µM (inactive),22.4 µM (inactive),62.1 µM (inactive),73.8 µM (inactive)
c1ccc2c(c1)CCN1CCc3ccccc3C1C2 (stereo not given),38.4 µM (inactive),59.6 µM (inactive),59.6 µM (inactive),99.1 µM (inactive),32.2 µM (inactive),42.3 µM (inactive),43.7 µM (inactive),47.1 µM (inactive),58.7 µM (inactive),18.1 µM (inactive),51.2 µM (inactive),> 100 µM (inactive),17.7 µM (inactive),64.6 µM (inactive),52.1 µM (inactive),43 µM (inactive),40.4 µM (inactive),76.9 µM (inactive),44.6 µM (inactive),23.6 µM (inactive)
C=C1CC2(CC(c3ccccc3Cl)OC(c3ccccc3Cl)C2)OC1=O (stereo not given),8.07 µM (inactive),1.87 µM (inactive),4.33 µM (inactive),2.91 µM (inactive),2.27 µM (inactive),1.85 µM (inactive),2.89 µM (inactive),2 µM (inactive),1.96 µM (inactive),5.89 µM (inactive),3.43 µM (inactive),6.87 µM (inactive),4.3 µM (inactive),1.98 µM (inactive),2.33 µM (inactive),0.752 µM (active),2.4 µM (inactive),1.05 µM (active),5.08 µM (inactive),8.69 µM (inactive)
NCC1CCCCC1.O=C(O)NCC1CCCCC1,7.45 µM (inactive),38 µM (inactive),30 µM (inactive),4.89 µM (inactive),12.8 µM (inactive),25.8 µM (inactive),17.7 µM (inactive),28.2 µM (inactive),15.7 µM (inactive),33.6 µM (inactive),14.1 µM (inactive),21.1 µM (inactive),15.3 µM (inactive),17.9 µM (inactive),12.1 µM (inactive),1.36 µM (inactive),15.2 µM (inactive),15.6 µM (inactive),13.4 µM (inactive),17.9 µM (inactive)
CN(CCCCN1CCCC1)CCCCN(C)C(=O)Cc1ccc(Cl)c(Cl)c1,13.6 µM (inactive),2 µM (inactive),18.2 µM (inactive),18.2 µM (inactive),17.2 µM (inactive),10.1 µM (inactive),16.8 µM (inactive),19.5 µM (inactive),6.22 µM (inactive),1.71 µM (inactive),6.07 µM (inactive),25.2 µM (inactive),6.43 µM (inactive),18.8 µM (inactive),13.1 µM (inactive),5.33 µM (inactive),4.54 µM (inactive),17.5 µM (inactive),14.8 µM (inactive),23.7 µM (inactive)
CC(=O)Nc1ccc2c3c(cc(O)c2c1)N(C(=O)CCCCCCC(=O)N1CC(CCl)c2c1cc(O)c1cc(NC(C)=O)ccc21)CC3CCl (stereo not given),< 0.01 µM (active),0.0148 µM (active),0.0251 µM (active),< 0.01 µM (active),< 0.01 µM (active),0.0203 µM (active),< 0.0119 µM (active),< 0.0152 µM (active),< 0.01 µM (active),0.0509 µM (active),< 0.01 µM (active),< 0.01 µM (active),< 0.01 µM (active),0.0151 µM (active),0.0249 µM (active),0.059 µM (active),< 0.01 µM (active),< 0.01 µM (active),< 0.01 µM (active),< 0.01 µM (active)
COc1ccc(C(C)NNC(=O)c2ccncc2)cc1OC (stereo not given),> 100 µM (inactive),> 100 µM (inactive),> 100 µM (inactive),> 100 µM (inactive),> 100 µM (inactive),> 100 µM (inactive),> 100 µM (inactive),> 100 µM (inactive),> 100 µM (inactive),> 100 µM (inactive),> 100 µM (inactive),> 100 µM (inactive),> 100 µM (inactive),> 100 µM (inactive),> 100 µM (inactive),> 100 µM (inactive),> 100 µM (inactive),> 100 µM (inactive),> 100 µM (inactive),> 100 µM (inactive)
N#Cc1cccc(Nc2ccccc2SSc2ccccc2Nc2cccc(C#N)c2)c1,5.92 µM (inactive),13.3 µM (inactive),19.3 µM (inactive),9.12 µM (inactive),4.93 µM (inactive),12.2 µM (inactive),4.82 µM (inactive),9.02 µM (inactive),2.94 µM (inactive),4.97 µM (inactive),> 10 µM (inactive),19 µM (inactive),9.04 µM (inactive),3.48 µM (inactive),9.46 µM (inactive),3.93 µM (inactive),3.13 µM (inactive),4.76 µM (inactive),7.71 µM (inactive),10.3 µM (inactive)
COC(=O)C1=C(C(=O)OC)N(c2ccc(OC)cc2[N+](=O)[O-])C(c2ccc(C)cc2)=CC1c1ccc(OC)cc1OC (stereo not given),6.37 µM (inactive),64.3 µM (inactive),18.5 µM (inactive),23.6 µM (inactive),32.9 µM (inactive),23.3 µM (inactive),47.6 µM (inactive),28 µM (inactive),3.86 µM (inactive),11.7 µM (inactive),29.6 µM (inactive),25.2 µM (inactive),26.2 µM (inactive),3.88 µM (inactive),4.27 µM (inactive),2.07 µM (inactive),8.79 µM (inactive),3.8 µM (inactive),24.5 µM (inactive),18.3 µM (inactive)
Cc1nc(N)nc(S)c1CCC(=O)O,> 100 µM (inactive),> 100 µM (inactive),> 100 µM (inactive),> 100 µM (inactive),> 100 µM (inactive),> 100 µM (inactive),> 100 µM (inactive),> 100 µM (inactive),> 100 µM (inactive),> 100 µM (inactive),> 100 µM (inactive),> 100 µM (inactive),> 100 µM (inactive),> 100 µM (inactive),> 100 µM (inactive),> 100 µM (inactive),> 100 µM (inactive),> 100 µM (inactive),> 100 µM (inactive),> 100 µM (inactive)
O=[N+]([O-])c1ccc2c(c1)Nc1c3ccccc3nc3cccc-2c13,3.18 µM (inactive),6.52 µM (inactive),5.38 µM (inactive),0.689 µM (active),8.61 µM (inactive),2.41 µM (inactive),2.35 µM (inactive),4.67 µM (inactive),1.84 µM (inactive),5.65 µM (inactive),15 µM (inactive),0.593 µM (active),0.883 µM (active),2.13 µM (inactive),3.57 µM (inactive),4.49 µM (inactive),0.895 µM (active),1.32 µM (inactive),0.789 µM (active),25.9 µM (inactive)
